Data from patent US10941162B2, “Heterocyclic compounds and uses thereof” (Infinity Pharmaceuticals, Inc., priority 2014, dated 2021).

Legend:
PI3K α = PI3K α (Homo sapiens (Human), UniProt P42336); experiment: PI3-Kinase in vitro IC50 assay, α isoform; format: biochemical
From the text: (§1) A PI3-Kinase HTRF® assay kit (cat No. 33-016) purchased from Millipore Corporation is used to screen compounds provided herein. This assay uses specific, high affinity binding of the GRP1 pleckstrin homology (PH) domain to PIP3, the product of a Class 1A or 1B PI3 Kinase acting on its physiological substrate PIP2. During the detection phase of the assay, a complex is generated between the GST-tagged PH domain and biotinylated short chain PIP3. The biotinylated PIP3 and the GST-tagged PH domain recruited fluorophores (Streptavidin-Allophycocyanin and Europium-labeled anti-GST respectively) to form the fluorescence resonance energy transfer (FRET) architecture, generating a stable time-resolved FRET signal. The FRET complex is disrupted in a competitive manner by non-biotinylated PIP3, a product formed in the PI3 Kinase assay.
(§2) PI3 Kinase α, β, γ or δ activity is assayed using the PI3 Kinase HTRF®, assay kit (catalogue No. 33-016) purchased from Millipore Corporation. Purified recombinant PI3Kα (catalogue No. 14-602-K), PI3Kβ (catalogue No. 14-603-K), PI3Kγ (catalogue No. 14-558-K), and PI3Kδ (catalogue No. 14-604-K) are obtained from Millipore Corporation. Purified recombinant PI3K enzyme is used to catalyze the phosphorylation of phosphatidylinositol 4,5-bisphosphate (PIP2 at 10 μM) to phosphatidylinositol 3,4,5-trisphosphate (PIP3) in the presence of 10 μM ATP. The assay is carried out in 384-well format and detected using a Perkin Elmer EnVision Xcite Multilabel Reader. Emission ratios are converted into percent inhibitions and imported into GraphPad Prism software. The concentration necessary to achieve inhibition of enzyme activity by 50% (IC50) is calculated using concentrations ranging from 20 μM to 0.1 nM (12-point curve), IC50 values are determined using a nonlinear regression model available in GraphPad Prism 5.
(§3) Promega ADP-Glo Max assay kit (Cat. No. V7002) can be utilized to determine IC50 values for α, β, δ and γ isoforms of human Class I PI3 kinases (Millipore). Samples of kinase (20 nM α or δ, 40 nM β or γ isoform) are incubated with compound for 15 minutes at room temperature in reaction buffer (15 mM HEPES pH 7.4, 20 mM NaCl, 1 mM EGTA, 0.02% Tween 20, 10 mM MgCl2, 0.2 mg/mL bovine-γ-globulins) followed by addition of ATP/diC8-PtdInsP mixture to give final concentrations of 3 mM ATP and 500 uM diC8-PtdInsP. Reactions are incubated at room temperature for 2 hours followed by addition of 25 uL of stop solution. After a 40-minute incubation at room temperature, 50 uL of Promega detection mix is added followed by incubation for 1 hour at room temperature. Plates are then read on Envision plate reader in luminescence mode. Data are converted to % inhibition using the following equation below:
(§4) [formula] where S is the sample luminescence, Pos is a positive control without added PI3K, Neg is the negative control without added compound. Data are then plotted as % inhibition vs compound concentration. Data fit to 4 parameter logistic equation to determine IC50 values: […]

PI3K γ = PI3K γ (Homo sapiens (Human), UniProt P48736); experiment: PI3-Kinase in vitro IC50 assay, γ isoform; format: biochemical; details: for IC50: in vitro; for PI3K δ/PI3K γ IC50 (selectivity): ratio of PI3K δ IC50 to PI3K γ IC50
From the text: as §1, §2, §3, §4

PI3K δ = PI3K δ (Homo sapiens (Human), UniProt O00329); experiment: PI3-Kinase in vitro IC50 assay, δ isoform; format: biochemical
PI3K δ, sequence (O00329 whole entry, canonical isoform): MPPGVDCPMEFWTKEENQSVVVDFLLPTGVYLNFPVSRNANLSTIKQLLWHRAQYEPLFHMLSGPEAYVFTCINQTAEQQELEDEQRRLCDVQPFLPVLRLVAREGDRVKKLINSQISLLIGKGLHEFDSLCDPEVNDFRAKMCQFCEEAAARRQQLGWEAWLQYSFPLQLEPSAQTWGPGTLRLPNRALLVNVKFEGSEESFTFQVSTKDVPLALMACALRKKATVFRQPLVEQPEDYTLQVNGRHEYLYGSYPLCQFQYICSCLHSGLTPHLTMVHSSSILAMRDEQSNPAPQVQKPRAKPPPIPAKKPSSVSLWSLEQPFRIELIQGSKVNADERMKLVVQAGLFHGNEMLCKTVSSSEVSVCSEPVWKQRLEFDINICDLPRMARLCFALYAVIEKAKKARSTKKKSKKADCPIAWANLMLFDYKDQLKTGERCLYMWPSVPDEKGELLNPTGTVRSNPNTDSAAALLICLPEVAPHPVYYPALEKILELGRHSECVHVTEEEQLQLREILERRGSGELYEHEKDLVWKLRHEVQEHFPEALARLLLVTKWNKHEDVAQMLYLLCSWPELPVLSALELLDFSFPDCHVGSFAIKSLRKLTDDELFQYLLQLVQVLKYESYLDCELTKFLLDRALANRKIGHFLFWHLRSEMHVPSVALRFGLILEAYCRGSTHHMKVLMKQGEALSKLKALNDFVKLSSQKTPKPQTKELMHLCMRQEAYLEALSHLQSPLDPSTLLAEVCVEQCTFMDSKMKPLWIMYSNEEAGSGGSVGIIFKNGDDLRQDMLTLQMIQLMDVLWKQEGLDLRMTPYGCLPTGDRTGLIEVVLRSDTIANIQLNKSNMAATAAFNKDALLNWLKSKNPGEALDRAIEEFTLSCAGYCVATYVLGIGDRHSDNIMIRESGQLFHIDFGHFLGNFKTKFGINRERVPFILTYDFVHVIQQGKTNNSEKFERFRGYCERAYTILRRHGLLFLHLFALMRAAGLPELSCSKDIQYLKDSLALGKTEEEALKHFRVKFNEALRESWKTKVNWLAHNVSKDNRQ
PI3K δ, sequence (P27986 whole entry partner, canonical isoform): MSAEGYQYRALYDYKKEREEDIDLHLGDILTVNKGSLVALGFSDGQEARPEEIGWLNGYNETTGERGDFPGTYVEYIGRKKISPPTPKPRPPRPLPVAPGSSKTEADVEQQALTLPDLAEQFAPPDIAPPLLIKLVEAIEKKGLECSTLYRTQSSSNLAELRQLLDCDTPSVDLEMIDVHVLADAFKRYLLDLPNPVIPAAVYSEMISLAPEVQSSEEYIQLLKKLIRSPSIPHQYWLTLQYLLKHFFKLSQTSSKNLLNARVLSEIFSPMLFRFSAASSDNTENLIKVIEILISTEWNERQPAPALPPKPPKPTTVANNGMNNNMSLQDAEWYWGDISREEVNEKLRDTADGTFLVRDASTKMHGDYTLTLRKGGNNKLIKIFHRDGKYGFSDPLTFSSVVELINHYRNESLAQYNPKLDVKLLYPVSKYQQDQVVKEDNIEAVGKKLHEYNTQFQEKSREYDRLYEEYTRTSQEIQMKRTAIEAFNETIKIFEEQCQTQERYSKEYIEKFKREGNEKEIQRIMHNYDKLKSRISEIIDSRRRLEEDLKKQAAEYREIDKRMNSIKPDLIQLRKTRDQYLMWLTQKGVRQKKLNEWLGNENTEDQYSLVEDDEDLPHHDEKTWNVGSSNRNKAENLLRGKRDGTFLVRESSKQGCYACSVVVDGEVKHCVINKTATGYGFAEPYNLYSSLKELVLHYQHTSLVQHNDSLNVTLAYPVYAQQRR
From the text: as §1, §2, §3, §4

PI3K β = PI3K β (Homo sapiens, UniProt P42338); experiment: PI3-Kinase in vitro IC50 assay, β isoform; format: biochemical
PI3K β, sequence (P42338 whole entry, looked up, the tested form may be a part, canonical isoform): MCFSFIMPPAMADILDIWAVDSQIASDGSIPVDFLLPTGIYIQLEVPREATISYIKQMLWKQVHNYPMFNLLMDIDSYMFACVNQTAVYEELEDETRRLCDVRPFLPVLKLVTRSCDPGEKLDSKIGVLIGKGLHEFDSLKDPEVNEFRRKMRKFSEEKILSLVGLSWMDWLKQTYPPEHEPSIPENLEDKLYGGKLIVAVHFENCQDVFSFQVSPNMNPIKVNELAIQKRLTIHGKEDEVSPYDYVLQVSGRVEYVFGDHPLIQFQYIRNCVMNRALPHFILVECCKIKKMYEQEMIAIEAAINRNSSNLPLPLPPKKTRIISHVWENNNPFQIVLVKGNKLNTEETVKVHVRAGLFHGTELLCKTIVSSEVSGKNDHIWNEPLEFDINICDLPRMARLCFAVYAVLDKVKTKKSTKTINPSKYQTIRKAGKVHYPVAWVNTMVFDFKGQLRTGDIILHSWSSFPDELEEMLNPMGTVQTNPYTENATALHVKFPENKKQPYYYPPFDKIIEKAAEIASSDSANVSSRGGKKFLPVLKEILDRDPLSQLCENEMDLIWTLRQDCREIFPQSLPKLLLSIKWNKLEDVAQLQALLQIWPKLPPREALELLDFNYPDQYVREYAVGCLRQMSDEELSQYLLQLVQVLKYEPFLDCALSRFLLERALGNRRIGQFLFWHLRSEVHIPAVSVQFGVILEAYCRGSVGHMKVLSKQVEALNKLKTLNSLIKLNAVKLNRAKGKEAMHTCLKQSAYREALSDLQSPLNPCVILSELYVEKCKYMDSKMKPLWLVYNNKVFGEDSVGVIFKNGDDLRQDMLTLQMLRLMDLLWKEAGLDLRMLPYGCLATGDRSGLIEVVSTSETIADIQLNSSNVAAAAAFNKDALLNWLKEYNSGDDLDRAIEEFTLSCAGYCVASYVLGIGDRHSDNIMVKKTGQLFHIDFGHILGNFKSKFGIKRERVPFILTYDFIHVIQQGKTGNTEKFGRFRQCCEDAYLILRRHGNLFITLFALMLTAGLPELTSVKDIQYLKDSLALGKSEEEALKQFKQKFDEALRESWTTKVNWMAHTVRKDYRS
From the text: A PI3-Kinase HTRF® assay kit (cat No. 33-016) purchased from Millipore Corporation is used to screen compounds provided herein. This assay uses specific, high affinity binding of the GRP1 pleckstrin homology (PH) domain to PIP3, the product of a Class 1A or 1B PI3 Kinase acting on its physiological substrate PIP2. During the detection phase of the assay, a complex is generated between the GST-tagged PH domain and biotinylated short chain PIP3. The biotinylated PIP3 and the GST-tagged PH domain recruited fluorophores (Streptavidin-Allophycocyanin and Europium-labeled anti-GST respectively) to form the fluorescence resonance energy transfer (FRET) architecture, generating a stable time-resolved FRET signal. The FRET complex is disrupted in a competitive manner by non-biotinylated PIP3, a product formed in the PI3 Kinase assay. PI3 Kinase α, β, γ or δ activity is assayed using the PI3 Kinase HTRF®, assay kit (catalogue No. 33-016) purchased from Millipore Corporation. Purified recombinant PI3Kα (catalogue No. 14-602-K), PI3Kβ (catalogue No. 14-603-K), PI3Kγ (catalogue No. 14-558-K), and PI3Kδ (catalogue No. 14-604-K) are obtained from Millipore Corporation. Purified recombinant PI3K enzyme is used to catalyze the phosphorylation of phosphatidylinositol 4,5-bisphosphate (PIP2 at 10 μM) to phosphatidylinositol 3,4,5-trisphosphate (PIP3) in the presence of 10 μM ATP. The assay is carried out in 384-well format and detected using a Perkin Elmer EnVision Xcite Multilabel Reader. Emission ratios are converted into percent inhibitions and imported into GraphPad Prism software. The concentration necessary to achieve inhibition of enzyme activity by 50% (IC50) is calculated using concentrations ranging from 20 μM to 0.1 nM (12-point curve), IC50 values are determined using a nonlinear regression model available in GraphPad Prism 5. Promega ADP-Glo Max assay kit (Cat. No. V7002) can be utilized to determine IC50 values for α, β, δ and γ isoforms of human Class I PI3 kinases (Millipore). Samples of kinase (20 nM α or δ, 40 nM β or γ isoform) are incubated with compound for 15 minutes at room temperature in reaction buffer (15 mM HEPES pH 7.4, 20 mM NaCl, 1 mM EGTA, 0.02% Tween 20, 10 mM MgCl2, 0.2 mg/mL bovine-γ-globulins) followed by addition of ATP/diC8-PtdInsP mixture to give final concentrations of 3 mM ATP and 500 uM diC8-PtdInsP. Reactions are incubated at room temperature for 2 hours followed by addition of 25 uL of stop solution. After a 40-minute incubation at room temperature, 50 uL of Promega detection mix is added followed by incubation for 1 hour at room temperature. Plates are then read on Envision plate reader in luminescence mode. Data are converted to % inhibition using the following equation below: [formula] where S is the sample luminescence, Pos is a positive control without added PI3K, Neg is the negative control without added compound. Data are then plotted as % inhibition vs compound concentration. Data fit to 4 parameter logistic equation to determine IC50 values: [formula]

p110 γ = p110 γ (Mus musculus (Mouse), UniProt Q9JHG7); experiment: Raw264.7 p110 γ assay (PI3K-γ selective cellular assay, phospho-AKT); format: cell-based; details: for IC50: RAW264.7 cells stimulated with C5a, phospho-AKT; for RAJI δ/Raw264.7 γ IC50 (selectivity): ratio of RAJI p110 δ IC50 to Raw264.7 p110 γ IC50
From the text: A compound's ability in selectively inhibiting PI3K-γ can be assessed using RAW264.7 macrophages. Briefly, serum-starved RAW264.7 cells are stimulated with a known GPCR agonist C5a. See, e.g., Camps et al., Nature Medicine (2005) 11(9):936-943. Cells can be treated with test compounds prior to, simultaneously with, or subsequent to the stimulation by C5a. RAW 264.7 cells respond to the complement component fragment C5a through activation of the C5a receptor, and the C5a receptor activates macrophages and induces cell migration. Test compounds' ability to inhibit C5a-mediated AKT phosphorylation is indicative of selective inhibition of PI3K-γ. Thus, by monitoring the reduction of phospho-AKT in stimulated RAW 264.7 cells (using for example, phospho-AKT antibodies), a compound's potential efficacy in selectively inhibiting PI3Kγ can be assessed.
Certain compounds provided herein were tested in RAW 264.7 cell model using procedures as described above.

p110 δ = p110 δ (Homo sapiens (Human), UniProt O00329); experiment: RAJI p110 δ assay (PI3K-δ selective cellular assay, phospho-AKT); format: cell-based; details: RAJI cells stimulated with anti-human IgM
p110 δ, sequence (O00329 whole entry): as the sequence (O00329 whole entry, canonical isoform) above
p110 δ, sequence (P27986 whole entry partner): as the sequence (P27986 whole entry partner, canonical isoform) above
From the text: A compound's ability in selectively inhibiting PI3K-δ can be assessed using RAJI cells, i.e., B lymphocyte cells derived from lymphoma patients. Briefly, serum-starved RAJI cells are stimulated with anti-human IgM, thereby causing signaling through the B-cell receptors, as described in, for example, He et al., Leukemia Research (2009) 33: 798-802. B-cell receptor signaling is important for the activation, differentiation, and survival of B cells and certain B-cell derived cancers. Reduction of phospho-AKT is indicative of compounds that may inhibit B-cell proliferation and function in certain diseases. By monitoring the reduction of phospho-AKT in stimulated RAJI cells (using for example, phospho-AKT antibodies), a compound's potential efficacy in selectively inhibiting PI3KS can be assessed.

PI3K α, sequence (P42336 whole entry, the tested form may be a part, canonical isoform): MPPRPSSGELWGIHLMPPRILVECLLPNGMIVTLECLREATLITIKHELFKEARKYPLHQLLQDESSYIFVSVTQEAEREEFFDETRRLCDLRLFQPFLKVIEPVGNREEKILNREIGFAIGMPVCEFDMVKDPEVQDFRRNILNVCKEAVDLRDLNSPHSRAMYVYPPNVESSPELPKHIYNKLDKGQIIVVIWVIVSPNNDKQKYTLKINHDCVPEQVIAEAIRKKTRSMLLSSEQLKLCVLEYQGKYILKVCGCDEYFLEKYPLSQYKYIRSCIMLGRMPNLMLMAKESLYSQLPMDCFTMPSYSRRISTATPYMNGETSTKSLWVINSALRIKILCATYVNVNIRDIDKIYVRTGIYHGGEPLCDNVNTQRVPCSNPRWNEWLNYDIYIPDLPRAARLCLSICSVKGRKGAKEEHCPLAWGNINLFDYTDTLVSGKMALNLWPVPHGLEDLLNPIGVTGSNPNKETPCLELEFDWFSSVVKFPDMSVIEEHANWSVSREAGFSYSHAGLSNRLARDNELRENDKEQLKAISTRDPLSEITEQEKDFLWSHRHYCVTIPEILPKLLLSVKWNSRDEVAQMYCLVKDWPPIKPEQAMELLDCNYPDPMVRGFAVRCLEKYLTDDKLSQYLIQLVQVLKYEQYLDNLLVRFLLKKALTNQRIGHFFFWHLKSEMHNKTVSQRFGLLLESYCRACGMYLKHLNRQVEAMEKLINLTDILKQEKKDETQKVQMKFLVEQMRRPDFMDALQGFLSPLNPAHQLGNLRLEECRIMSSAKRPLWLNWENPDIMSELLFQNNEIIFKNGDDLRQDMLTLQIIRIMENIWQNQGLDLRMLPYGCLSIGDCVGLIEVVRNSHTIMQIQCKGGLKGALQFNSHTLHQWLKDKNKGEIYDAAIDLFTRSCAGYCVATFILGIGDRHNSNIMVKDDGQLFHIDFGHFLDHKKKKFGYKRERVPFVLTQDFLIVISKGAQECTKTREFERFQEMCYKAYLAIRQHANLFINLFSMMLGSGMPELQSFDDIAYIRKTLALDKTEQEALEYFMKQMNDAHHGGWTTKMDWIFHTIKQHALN
PI3K α, sequence (P27986 whole entry partner, the tested form may be a part, canonical isoform): as the sequence (P27986 whole entry partner, canonical isoform) above

Row | SMILES | IC50 (PI3K α) [µM] | IC50 (PI3K γ) [µM] | PI3K δ/PI3K γ IC50 (selectivity) (PI3K γ) | IC50 (PI3K δ) [µM] | IC50 (PI3K β) [µM] | IC50 (p110 γ) [µM] | RAJI δ/Raw264.7 γ IC50 (selectivity) (p110 γ) | IC50 (p110 δ) [µM]
1 | C[C@H](NC(=O)c1c(N)nn2cccnc12)c1cc2cccc(C#Cc3cnn(C)c3)c2nc1-c1ccccc1 [Compound 175S] | 5 to 10 | 0.1 to 0.5 | X (X = 10 to <50) | 5 to 10 | 5 to 10 | 0.001 to 0.05 | W (W = >1 to <10) | 0.1 to 0.5
2 | C[C@@H](NC(=O)c1c(N)nn2cccnc12)c1nc2cccc(C#Cc3cnn(C)c3)c2cc1-c1ccccc1 [Compound 181R] | 5 to 10 | > 5 | V (V = 0.1 to 1) | 5 to 10 | 5 to 10 | 0.1 to 10 | V (V = 0.1 to 1) | 1 to 10
3 | C[C@H](NC(=O)c1c(N)nn2cccnc12)c1nc2cccc(C#Cc3cnn(C)c3)c2cc1-c1ccccc1 [Compound 181S] | 5 to 10 | > 5 | V (V = 0.1 to 1) | 5 to 10 | 5 to 10 | 0.1 to 10 | Y (Y = 50 to <850) | 1 to 10

The next lines start with the values.

Row | IC50 (PI3K α) [µM] | IC50 (PI3K γ) [µM] | PI3K δ/PI3K γ IC50 (selectivity) (PI3K γ) | IC50 (PI3K δ) [µM] | IC50 (PI3K β) [µM] | IC50 (p110 γ) [µM] | RAJI δ/Raw264.7 γ IC50 (selectivity) (p110 γ) | IC50 (p110 δ) [µM] | SMILES
4 | 5 to 10 | > 5 | V (V = 0.1 to 1) | 5 to 10 | 5 to 10 | 0.1 to 10 | X (X = 10 to <50) | 1 to 10 | C[C@@H](NC(=O)c1c(N)nn2cccnc12)c1oc2cccc(C#Cc3cnn(C)c3)c2c(=O)c1-c1ccccc1 [Compound 103R]
5 | 5 to 10 | 0.1 to 0.5 | X (X = 10 to <50) | 5 to 10 | 5 to 10 | 0.001 to 0.05 | Y (Y = 50 to <850) | 1 to 10 | C[C@H](NC(=O)c1c(N)nn2cccnc12)c1oc2cccc(C#Cc3cnn(C)c3)c2c(=O)c1-c1ccccc1 [Compound 103S]
6 | 5 to 10 | 1 to 5 | W (W = >1 to <10) | 5 to 10 | 5 to 10 | 0.05 to 0.1 | X (X = 10 to <50) | 1 to 10 | CC(NC(=O)c1c(N)nn2cccnc12)c1oc2cccc(C#Cc3cnn(C)c3)c2c(=O)c1-c1ccccc1 (centres unmarked) [Compound 103]
7 | 5 to 10 | > 5 | V (V = 0.1 to 1) | 5 to 10 | 5 to 10 |  |  |  | C[C@@H](NC(=O)c1c(N)nn2cccnc12)c1cc2cccc(C#Cc3cnn(C)c3)c2nc1-c1ccccc1 [Compound 175R]
